Reference: patent US5914329A, “Dimesylate salts of neuropeptide Y ligands” (Pfizer Inc., priority 1997, dated 1999)
Where a name gives a salt, the structure may show the parent alone.

Experiments:
[1] = Aqueous solubility of salts
[2] = Bioavailability (species not stated); conditions: in words
[3] = Chemical stability; assay type: physicochemical
[4] = Bioavailability in dogs
[5] = Hygroscopicity evaluation at high humidities; assay type: physicochemical; conditions: humidities below 90%

**Q.** With CCOc1cccc(C2(N3CCN(c4ccccc4)CC3)CCC(C)CC2)c1 (stereo not drawn) [compound I, dimesylate salt of cis-1-(3-ethoxyphenyl)-1-(4-phenylpiperazin-1-yl)-4-methyl-cyclohexane] as the compound, how does the solubility ([1]; solubility, dimesylate salt, medium not stated) read?
**A.** 31 mg/mL

**Q.** What about the bioavailability [2] of the same compound?
**A.** good

**Q.** What about the stability ([3]; in words) of the same compound?
**A.** good

**Q.** Which solubility ([1]; water, water solubility) does the source give for CCOc1cccc(C2(N3CCN(c4ccccc4)CC3)CCC(C)CC2)c1 (stereo not drawn) [dihydrochloride, cis-1-(3-ethoxyphenyl)-1-(4-phenylpiperazin-1-yl)-4-methyl-cyclohexane, reference compound] here?
**A.** 1 mg/mL

**Q.** What about the bioavailability in dogs [4] of the same compound?
**A.** 75%

**Q.** And the “stability in the solid state” value ([3]; solid state, in words)?
**A.** unstable

**Q.** With CCOc1cccc(C2(N3CCN(c4ccccc4)CC3)CCC(C)CC2)c1 (stereo not drawn) [form A, Dimesylate salt of cis-1-(3-ethoxyphenyl)-1-(4-phenylpiperazin-1-yl)-4-methylcyclohexane] as the compound, how does the solubility ([1]; water, Aqueous solubility, isolated form A of the dimesylate salt) read?
**A.** 31 mg/mL

**Q.** And the hygroscopicity [5]?
**A.** non-hygroscopic

**Q.** What about the Chemical stability ([3]; 40° C. in 75% RH) of the same compound?
**A.** no detectable degradation

**Q.** What about the Chemical stability ([3]; 70° C., at ambient humidity) of the same compound?
**A.** no detectable degradation

**Q.** What about the Chemical stability ([3]; light box under fluorescent light) of the same compound?
**A.** no detectable degradation

**Q.** Which solubility ([1]; water, solubility in water, in water) does the source give for CCOc1cccc(C2(N3CCN(c4ccccc4)CC3)CCC(C)CC2)c1 (stereo not drawn) [fumarate salt, cis-1-(3-ethoxyphenyl)-1-(4-phenylpiperazin-1-yl)-4-methyl-cyclohexane, reference compound] here?
**A.** 0.04 mg/mL
